Columns and labels:
[1] = target: T1, human β2-adrenergic receptor (Homo sapiens, UniProt P07550); assay: Test Case 3-C: human β2-adrenergic receptor agonist activity (Cerep cellular functional GPCR, beta 2); type: cell-based; details: concentration 10 μM, isoproterenol = 100%
T1 construct: expressed in transfected cells; host or cells: CHO (Chinese hamster ovary) cells, pcDNA3
Excerpt: (§1) Measurement of Human β2-Adrenergic Receptor Agonist Activity

Male C57BL/6 Cr mice = assay: Test Case 10: mouse piloerection test; type: in vivo; details: 10 mg/kg i.v., Score 0
[2] = target: T2, human β3-adrenergic receptor (Homo sapiens, UniProt P13945); assay: Test Case 1-B: human β3-adrenergic receptor agonist activity (cAMP-Screen, 96-well); type: cell-based; details: for Emax: 0.5 h, read-out: β3 receptor I.A.; for EC50: CHO cells, cAMP
T2 construct: A full-length human β3 gene is obtained from a human genomic library (made by Clontech) using this as the probe; expressed in transfected cells; host or cells: CHO (Chinese hamster ovary) cells, pcDNA3
T2 sequence (P13945 whole entry): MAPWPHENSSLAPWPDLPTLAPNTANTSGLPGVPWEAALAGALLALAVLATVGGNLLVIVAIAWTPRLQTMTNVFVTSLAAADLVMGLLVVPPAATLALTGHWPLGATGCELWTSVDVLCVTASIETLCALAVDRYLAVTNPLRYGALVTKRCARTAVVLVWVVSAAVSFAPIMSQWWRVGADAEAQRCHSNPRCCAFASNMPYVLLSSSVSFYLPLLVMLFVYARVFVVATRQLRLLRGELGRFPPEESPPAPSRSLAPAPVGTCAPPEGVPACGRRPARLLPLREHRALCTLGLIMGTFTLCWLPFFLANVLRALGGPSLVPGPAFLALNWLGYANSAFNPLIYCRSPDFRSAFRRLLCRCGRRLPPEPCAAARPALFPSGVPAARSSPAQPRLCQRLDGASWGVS
How it was run: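 CHO cells stably transfected with full-length human β3 gene, serum-starved 15 min, then exposed to serially diluted compound in Ham's F-12 with 100 mmol/L HEPES and 1 mmol/L IBMX (diluent concentrations) for 30 min. Cells lysed 30 min at 37 °C; cAMP quantified by cAMP-Screen immunoassay.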

[3] = target: T1, human β2-adrenergic receptor; assay: Test Case 3-B: human β2-adrenergic receptor agonist activity; type: cell-based; details: read-out: β2 receptor I.A.
Procedure: as §1
The human β2-adrenergic receptor agonist activity is measured by the same method as in Test Case 1-B using CHO (Chinese hamster ovary) cells transfected by a human β2 gene inserted in pcDNA3 (Invitrogen).

[4] = target: T3, human α1A-adrenergic receptor (Homo sapiens, UniProt P35348); assay: Test Case 4-B: human α1A-adrenergic receptor agonist activity (Cerep cellular functional GPCR, alpha 1A); type: cell-based; design: expressed in transfected cells; details: concentration 10 μM; for α1 receptor % of Control Agonist Response, Control; Epinephrine: epinephrine = 100%; for α1 receptor % of Control Agonist Response, Control; Norepinephrine: norepinephrine = 100%
T3 sequence (P35348 1-466): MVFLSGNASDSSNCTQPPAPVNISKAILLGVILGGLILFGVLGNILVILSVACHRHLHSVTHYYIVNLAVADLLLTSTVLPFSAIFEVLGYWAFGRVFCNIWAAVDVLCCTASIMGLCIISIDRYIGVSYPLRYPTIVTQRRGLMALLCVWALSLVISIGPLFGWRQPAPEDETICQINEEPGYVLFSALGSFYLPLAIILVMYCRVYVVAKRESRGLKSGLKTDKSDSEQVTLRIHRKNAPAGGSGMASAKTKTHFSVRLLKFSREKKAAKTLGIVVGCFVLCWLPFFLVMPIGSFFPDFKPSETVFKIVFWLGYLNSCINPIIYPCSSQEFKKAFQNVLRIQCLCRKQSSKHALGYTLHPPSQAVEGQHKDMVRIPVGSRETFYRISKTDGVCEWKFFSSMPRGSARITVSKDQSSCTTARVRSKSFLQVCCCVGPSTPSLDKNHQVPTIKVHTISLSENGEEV
Excerpt: Measurement of Human α1A-Adrenergic Receptor Agonist Activity
The human α1A-adrenergic receptor agonist activity] can be measured by […] Functional GPCR·Gs, alpha 1A (Ref. 722-36a) listed on p. 52 of the Cerep 2008 CATALOG IN VITRO PHARMACOLOGY & ADME-TOX.

[5] = target: T4, human β1-adrenergic receptor (Homo sapiens, UniProt P08588); assay: Test Case 2-C: human β1-adrenergic receptor agonist activity (Cerep cellular functional GPCR, beta 1); type: cell-based; details: concentration 10 μM, isoproterenol = 100%
T4 construct: expressed in transfected cells; host or cells: CHO (Chinese hamster ovary) cells, pcDNA3
T4 sequence (P08588 whole entry): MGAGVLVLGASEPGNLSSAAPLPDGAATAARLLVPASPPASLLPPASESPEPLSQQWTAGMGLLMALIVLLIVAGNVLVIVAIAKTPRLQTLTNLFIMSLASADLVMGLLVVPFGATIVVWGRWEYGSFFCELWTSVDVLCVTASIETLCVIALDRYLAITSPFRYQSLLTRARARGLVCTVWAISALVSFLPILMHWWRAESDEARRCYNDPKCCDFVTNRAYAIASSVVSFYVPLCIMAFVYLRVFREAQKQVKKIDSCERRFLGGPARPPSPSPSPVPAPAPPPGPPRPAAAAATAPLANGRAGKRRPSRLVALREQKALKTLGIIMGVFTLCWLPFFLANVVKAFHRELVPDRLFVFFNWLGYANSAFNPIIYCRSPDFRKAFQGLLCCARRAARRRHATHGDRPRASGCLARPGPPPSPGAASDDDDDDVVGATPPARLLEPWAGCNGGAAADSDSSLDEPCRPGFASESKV
Excerpt: (§2) Measurement of Human β1-Adrenergic Receptor Agonist Activity

[6] = tested on: pentobarbital-anesthetized rats; assay: Test Case 9: effects on the blood pressure and heart rate in pentobarbital-anesthetized rats; type: in vivo, rat; details: anesthetized male SD rats; 3 mg/kg intravenous over 30 seconds; maximum change, mean±standard deviation
Procedure: Effects on the blood pressure and heart rate in pentobarbital-anesthetized rats
The blood pressure and heart rate of rats under pentobarbital anesthesia are measured, and the effects of rapid intravenous administration of the test compound on the blood pressure and heart rate can be studied. After anesthetizing male SD rats (Japan SLC) by intraperitoneal administration of 50 mg/kg of pentobarbital sodium (Tokyo Chemical Industry Co., Ltd.), 25 mg/kg of pentobarbital sodium is administered subcutaneously as maintenance anesthesia. The left femoral vein is exposed and stripped, and a SP10 polyethylene tube filled with saline (connected to a three-way stopcock via a ¼ venous needle) is inserted and left in place in the vein.
The inside of the left thigh is cut, and the femoral artery is exposed and stripped. A polyethylene tube filled with heparinized physiological saline solution (SP31, connected to a three-way stopcock via a Terumo injection needle 22G) is inserted and connected to a pressure transducer. The blood pressure is measured from the pressure transducer via a strain pressure amplifier (AP-641G, Nihon Kohden). The heart rate is measured with the pulse wave of the blood pressure as a trigger via a heart rate counter (AT-601G, Nihon Kohden). The blood pressure, mean blood pressure, and heart rate are output to a recorder and recorded. Furthermore, the mean blood pressure is recorded via the strain pressure amplifier (AP-641G) using the formula {[…]}.
Specifically, 3 mg/mL of test compound is administered rapidly at a volume of 1 mL/kg. The relative value (%) of the values at each point in time versus the mean blood pressure and heart rate before beginning administration are determined for each individual, and the mean±standard deviation of the relative value (%) at the time of the maximum change in each parameter is determined.

[7] = target: T2, human β3-adrenergic receptor; assay: Test Case 1-A: human β3-adrenergic receptor agonist activity (cAMP-EIA, 24-well); type: cell-based; details: maximum response of isoproterenol = 100%
Procedure: Measurement of Human β3-Adrenergic Receptor Agonist Activity
The human β3-adrenergic receptor agonist activity is measured using CHO (Chinese hamster ovary) cells transfected by a human β3 gene inserted in pcDNA3 (Invitrogen). […] A full-length human β3 gene is obtained from a human genomic library (made by Clontech) using this as the probe. These cells are cultured in Ham's F-12 medium containing 10% fetal calf serum and 400 μg/mL genectin (Invitrogen). These cells are sown in 24-well plates to make 1×10^5 cells/well. After culturing for approximately 20 hours, they are allowed to stand for two hours in serum-free Ham's F-12 medium. […] After culturing for 30 minutes, the medium is removed, and 0.1 mL of 1 N NaOH is added and allowed to stand for 20 minutes. A quantity of 0.1 mL of 1 N acetic acid is added. After stirring, centrifugation is performed, and cAMP is assayed using a cAMP-EIA kit (made by Cayman).

[8] = tested on: common marmoset isolated bladder smooth muscle; assay: Test Case 7: common marmoset isolated bladder smooth muscle relaxation test; details: KCl 40 mmol/L contracted marmoset bladder, papaverine 10^−4 mol/L relaxation = 100%
Procedure: Common Marmoset Isolated Bladder Smooth Muscle Relaxation Test
After sacrificing common marmosets (Japan CLEA) by exsanguination, they are laparotomized and the urinary bladder is removed. […] The specimens are loaded with one gram of resting tension and stabilized for 30 or more minutes. After the resting tension of the specimen has stabilized, a final concentration of 40 mmol/L of KCl is added repeatedly, and it is confirmed that the contraction in response to KCl has basically become constant. […] Taking that relaxation response as 100%, the relaxation rate (%) at test compound concentrations of […] is calculated.

[9] = target: T4, human β1-adrenergic receptor; assay: Test Case 2-B: human β1-adrenergic receptor agonist activity; type: cell-based; details: read-out: β1 receptor I.A.
Procedure: as §2
The human β1-adrenergic receptor agonist activity is measured by the same method as in Test Case 1-B using CHO (Chinese hamster ovary) cells transfected by a human β1 gene inserted in pcDNA3 (Invitrogen).

[10] = target: T3, human α1A-adrenergic receptor; assay: Test Case 4-A: human α1A-adrenergic receptor agonist activity (HEK293, Ca flux, Fura-2); type: cell-based; design: expressed in transfected cells; host or cells: HEK293 cells, pcDNA3.1; details: HEK293; read-out: α1A receptor I.A.
How it was run: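 Fura-2AM-loaded HEK293 cells transfected with human α1A were preincubated for 180 s. Compound (sample plate 10^−5 to 10^−12 M) was added after ~30 s of 340/380 nm excitation ratio reading (500 nm emission, 2-s intervals), followed by 270 s more reading. Ca flux is the peak height: maximum ratio after addition minus the pre-addition ratio.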

T1 sequence (P07550 whole entry): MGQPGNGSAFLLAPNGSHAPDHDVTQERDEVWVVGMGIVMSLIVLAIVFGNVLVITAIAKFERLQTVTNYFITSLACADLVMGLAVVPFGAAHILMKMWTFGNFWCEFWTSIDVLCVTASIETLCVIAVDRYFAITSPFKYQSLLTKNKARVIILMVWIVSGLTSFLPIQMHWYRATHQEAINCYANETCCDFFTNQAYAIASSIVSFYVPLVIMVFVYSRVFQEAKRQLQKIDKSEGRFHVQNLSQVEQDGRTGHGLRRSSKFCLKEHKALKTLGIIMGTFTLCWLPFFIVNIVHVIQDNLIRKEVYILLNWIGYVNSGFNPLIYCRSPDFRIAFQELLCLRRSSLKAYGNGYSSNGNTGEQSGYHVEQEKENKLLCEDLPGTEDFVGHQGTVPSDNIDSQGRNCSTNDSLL

β3 receptor I.A. ([2]; Test Case 1-B, maximum response of isoproterenol = 100%) [%] | β3 receptor I.A. [7] [%] | SMILES | β2 receptor % of Control Agonist Response [1] [%] | number of experimental animals matching Score 0 (no piloerection) (Male C57BL/6 Cr mice; n=4, observation time 5 min) | number of experimental animals matching Score 0 (no piloerection) (Male C57BL/6 Cr mice; n=4, observation time 15 min) | number of experimental animals matching Score 0 (no piloerection) (Male C57BL/6 Cr mice; n=4, observation time 30 min) | number of experimental animals matching Score 0 (no piloerection) (Male C57BL/6 Cr mice; n=4, observation time 60 min) | Emax [2] [%] | EC50 ([2]; Test Case 1-B) [nM] | Emax [3] [%] | α1 receptor % of Control Agonist Response, Control; Epinephrine [4] [%] | α1 receptor % of Control Agonist Response, Control; Norepinephrine [4] [%] | β1 receptor % of Control Agonist Response [5] [%] | increase in MBP (%) [6] [%] | relaxant activity (%) 10^−4M ([8]; 10^−4 M) [%] | relaxant activity (%) 10^−5M ([8]; 10^−5 M) [%] | Emax [9] [%] | Emax [10] [%]
 |  | CCc1n[nH]c2cc(OCCNC[C@H](O)c3cccc(NS(=O)(=O)c4cnn(C)c4)c3)ccc12 [ex135, (R)-N-(3-(2-(2-(3-ethylindazol-6-yloxy)ethylamino)-1-hydroxyethyl)phenyl)-1-methylpyrazole-4-sulfonamide] | 1.3 | 4 | 4 | 4 | 4 | 105 | 29 | 7 | 0 | 0 | 3.7 | 5.6 ± 1.2 |  |  |  | 
100 | 100 | CC(C)NCC(O)c1ccc(O)c(O)c1 (centres unmarked) [isoproterenol, reference compound] |  |  |  |  |  |  |  |  |  |  |  |  | 54.4 | 50.6 |  | 
 |  | O=S(=O)(Nc1cccc([C@@H](O)CNCCOc2ccc3c(C4CC4)n[nH]c3c2)c1)C1CC1 [ex212] |  | 4 | 4 | 4 | 4 | 95 | 29 | 15 |  |  |  | 2.1 ± 1.7 |  |  | 6 | 0
 |  | O=S(=O)(Nc1cccc([C@@H](O)CNCCOc2ccc3c(OC(F)F)n[nH]c3c2)c1)c1cn[nH]c1 [ex113, (R)-N-(3-(2-(2-(3-(difluoromethoxy)-indazol-6-yloxy)ethylamino)-1-hydroxyethyl)phenyl)pyrazole-4-sulfonamide] | 0.2 | 4 | 4 | 4 | 4 | 108 | 22 | 3 | 6.9 | 6.0 | 3.7 | 3.3 ± 1.7 |  |  |  | 
 |  | CCc1n[nH]c2cc(OCCNC[C@H](O)c3cccc(NS(=O)(=O)c4cn[nH]c4)c3)ccc12 [ex149] | 0.2 | 4 | 4 | 4 | 4 | 100 | 12 | 0 | 8.5 | 7.3 | 5.2 | 2.1 ± 1.9 |  |  |  | 
